The structures appear in SMILES notation. Where two headings read alike, the source gives them in different places.

This data set is described as follows: CSF study, plasma and CSF pharmacokinetics. Format: in vivo. The following applies: human; for Tmax: median (range); for Kp at 5 h / concentration at 5 h / Cmax / half-life / AUC(0-t): 35 mg; for concentration at 5 h: CSF; for AUC(0-t): read-out: AUC0–12h. As for the experimental part: A non‐randomized, open label, multiple dose phase I study to determine the pharmacokinetic parameters of UE2343 in CSF was carried out at Linear Clinical Research Ltd, Nedlands, Australia. Four healthy male subjects each received 35 mg UE2343 b.i.d (12 hourly) fed (30 min after the start of a standard meal) for 3 days (Day 1 to Day 3) and once on the morning of Day 4 (seven doses in total). Plasma pharmacokinetic samples were taken from each subject on Day 1 and Day 4. A single CSF sample was taken from each subject at 5 h post‐final dose on Day 4, corresponding to the plasma Tmax (time to maximum plasma concentration).
Laboratory evaluation of clinical safety parameters was carried out using standard validated methods. Measurement of plasma pharmacodynamic markers [adrenocorticotropic hormone (ACTH), cortisol, 4‐androstenedione, testosterone and dehydroepiandrosterone sulphate (DHEA‐s)] was carried out using commercially available kits. Each method was fully validated prior to analysis. Urinary steroid metabolites were measured according to established methods (Boonen et al., 2013). UE2343 levels in plasma, urine and CSF was determined by LC–MS/MS using fully validated methods.
The data and statistical analysis comply with the recommendations on experimental design and analysis in pharmacology (Curtis et al., 2015). Levels of probability, P < 0.05 were deemed to constitute the threshold for statistical significance. Pharmacokinetic parameters, except Tmax (time of maximum observed drug concentration), are given as mean ± coefficient of variation (CV%). Tmax is given as median ± range. For each of the pharmacodynamic parameters [ACTH, cortisol, adrenal androgens, tetrahydrocortisols (THFs)/tetrahydrocortisone (THE) ratio], the maximum % change from baseline for each subject was subjected to ANOVA. For selected data, an additional covariate factor for the baseline was also included in the ANOVA/analysis of covariance (ANCOVA) model. Associated P‐values <0.05 for each comparison have been presented.

The mark [1] stands for this setting: male, plasma, oral, 35 mg b.i.d, Day 1, mean (CV%).
Where [2] appears, read: male, plasma, oral, 35 mg b.i.d, Day 4, mean (CV%).

One may read the Cmax as the peak of the concentration-time curve. A word on the half-life: it is the time in which the quantity being followed falls by half. Higher therefore signals slow decline. As to `O=C(c1csc(-c2cn[nH]c2)c1)N1C2CCC1CC(O)(c1ncccn1)C2` (stereo not shown) [compound 4], the “CCSF, 5h (concentration in CSF)” value (35 mg b.i.d, Day 4, 5 h post-dose, mean (CV%), listed as UE2343) was 69.8 (44%) ng·mL^−1. Also, the Tmax is, setting by setting: (35 mg b.i.d, Day 4) 5.1 (3–5) h; (male, plasma, oral, 35 mg b.i.d, Day 1, read-out: Tmax) 5.1 h. Also, the “extent of accumulation in plasma after repeated dosing” value (35 mg b.i.d, Day 4 vs Day 1) was determined as 3.3 fold. Besides, where the note is “35 mg b.i.d, Days 1 and 4”, the “time post‐dose at which mean Cmax was reached” value came to 5 h. Moreover, the “CSF concentration relative to IC50 at Cmin” value (35 mg twice daily, in words) is listed as “more than fivefold”. Besides, where the note is “35 mg twice daily, in words, listed as UE2343”, the “CSF concentration relative to IC50 at Cmax” value was “up to ninefold greater”. Also, the Kp at 5 h reads like this: (male, CSF (relative to free plasma), oral, 35 mg b.i.d, Day 4, read-out: CSF levels as % of the free plasma levels, range) 0.25 to 0.4; (male, CSF (relative to free plasma), oral, 35 mg b.i.d, at plasma Cmax on Day 4, read-out: mean CSF levels as % of the free plasma levels) 0.33; (male, CSF (relative to total plasma), oral, 35 mg b.i.d, Day 4, read-out: CSF concentration as % of simultaneous total plasma levels, range) 0.0746 to 0.119; (male, CSF (relative to total plasma), oral, 35 mg b.i.d, at plasma Cmax on Day 4, read-out: mean CSF levels as % of the total plasma levels) 0.1. The concentration at 5 h is, setting by setting: (male, oral, 35 mg b.i.d, Day 4, 5 h post-dose, mean (CV%), read-out: CCSF, 5h (concentration in CSF)) 69.8 ng/mL; (male, oral, 35 mg b.i.d, Day 4, 5 h post-dose, read-out: concentration in the CSF, range over subjects) 41.2 to 99.9 ng/mL. Further, the Cmax under setting [1] came to 235 ng/mL and the peak concentration (Cmax) under setting [2] was determined as 708 ng/mL. For the same molecule, the half-life reads like this: under setting [1], 6.24 h; under setting [2], 8.97 h. Moreover, the AUC(0-t) came out at 1710 ng·h/mL under setting [1] and 5670 ng·h/mL under setting [2].

Values taken from paper PMC5301048, “Selection and early clinical evaluation of the brain‐penetrant 11β‐hydroxysteroid dehydrogenase type 1 (11β‐HSD1) inhibitor UE2343 (Xanamem™)” (British Journal of Pharmacology, 2017).
